This note sets out measurements from patent US11624093B2, “Tumor suppressor and oncogene biomarkers predictive of anti-immune checkpoint inhibitor response” (Dana-Farber Cancer Institute, Inc., priority 2014, dated 2023).

Assay [1] relates to Kras mutant mice, total lung and tumor infiltrating immune cells. Description: Immune cell analysis of lungs of Kras mutant mice treated with the arginase inhibitor. Type of assay: in vivo, mouse. Conditions: 30 mg/kg once daily gavage, 1 week. The text has this:
(§1) All EGFR transgenic mice carrying tetracycline inducible human EGFR cDNA were previously generated, crossed with CC10-RTTA mice expressing reverse tetracycline activator from lung Clara cell CC10 promoter, and maintained in mixed background. Double positive progeny were fed with doxycycline diet starting at 5-6 weeks of age for the induction of tumors and maintained on doxycyline throughout the study. EGFR and KrasG12D mice were maintained in mixed (C57Bl/6, FVB, and S129) background and given adeno virus expressing Cre recombinase (5×10^6 titer) intranasally at 5 weeks of age for induction of recombination and tumor formation. All breedings and in vivo experiments were performed with the approval of the DFC1 Animal Care and Use Committee.
(§2) The arginase inhibitor (R)-2-Amino-6-borono-2-(2-(piperidin-1-yl)ethyl)hexanoic acid, also known as compound HY-15775/compound 9, was obtained from MedChem Express and is well known in the art (see, for example, Van Zandt et al. (2013) J. Med. Chem. 56:2568-2580). The compound was administered to mice at 30 mg/kg in phosphate-buffered saline (PBS) via oral gavage once daily.
Total lung cell and tumor infiltrating immune cell characterization was performed as described in Akbay et al. (2013) Cancer Discov. 3:1355-1363.

For assay [2], the system named is lung tumors of Kras^G12D mice. Description: MRI lung tumor volume quantification in Kras^G12D mice treated with the arginase inhibitor. Conditions: 30 mg/kg once daily gavage, 1 week. Type of assay: in vivo, mouse.
Source text: as §1, §2
Animals were anesthetized with 1.5-2% isoflurane (IsoFlo; Abbott) in 100% oxygen. […] Tumor volume quantifications were performed using 3D-Slicer software as described in Weaver et al. (2012) Cancer Res. 72:921-933.

As to `N[C@](CCCCB(O)O)(CCN1CCCCC1)C(=O)O` [compound 9/HY-15775, (R)-2-Amino-6-borono-2-(2-(piperidin-1-yl)ethyl)hexanoic acid], in assay [1], the “CD8 T cells in the total T cell population” value is “increase”; the “CD11c and CD11b myeloid populations” value is reported as “no change”; the “ratio of CD4 T cells in the total T cell population” value is given as “decrease”; the “ratio of CD8 to FoxP3 cells (cytotoxic T cells to regulatory T cells)” value is listed as “increase”. Moreover, the “total T cell counts” value in assay [1] is “increase”. Also, the “lung tumor volumes (change compared to baseline, MRI)” value in assay [2] is on record as “decreases”.
